Laboratory results as given in ChEMBL document CHEMBL1201862, “PubChem BioAssay data set” (2004).
Activity calls are given as the source filed them.

Columns and labels:
[1] = target: T1, Disintegrin and metalloproteinase domain-containing protein 17 (Homo sapiens, UniProt P78536); assay: ADAM17 protease inhibitors, dose response, counter-screen for ADAM10 exosite inhibitor project, biochemical, quenched FRET substrate (AID 743253)
cells = format: functional, cell-based
[2] = target: T2, Nuclear receptor subfamily 0 group B member 1 (Homo sapiens, UniProt P51843); format: functional, cell-based;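 also: HEK293T cells transfected with SF-1 and DAX-1 plus StAR promoter luciferase reporter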
T2 sequence (P51843 whole entry): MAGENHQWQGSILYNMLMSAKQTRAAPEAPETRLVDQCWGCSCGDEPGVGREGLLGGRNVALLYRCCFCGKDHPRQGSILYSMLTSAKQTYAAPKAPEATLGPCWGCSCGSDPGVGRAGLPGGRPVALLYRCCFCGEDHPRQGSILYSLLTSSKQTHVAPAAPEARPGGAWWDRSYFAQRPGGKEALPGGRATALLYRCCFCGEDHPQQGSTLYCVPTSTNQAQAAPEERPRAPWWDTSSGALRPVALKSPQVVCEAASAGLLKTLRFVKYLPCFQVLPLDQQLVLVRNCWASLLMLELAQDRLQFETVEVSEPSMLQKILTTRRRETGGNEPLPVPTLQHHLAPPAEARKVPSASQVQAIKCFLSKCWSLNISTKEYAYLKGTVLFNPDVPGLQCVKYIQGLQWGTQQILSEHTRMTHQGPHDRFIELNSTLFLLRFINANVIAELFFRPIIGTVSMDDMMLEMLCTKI

[3] = non-specific cell cytotoxicity, dose response, cytotoxicity control for PAX8 inhibitor project, plate reader, dry powder samples (AID 743021); format: functional, cell-based
[4] = cytotoxicity in OVCAR8 ovarian cancer cells, dose response, PAX8 project, cell-based, plate reader, dry powder samples (AID 743197); format: functional; conditions: OVCAR-8
Paired box protein Pax-8 = Paired box protein Pax-8 (Homo sapiens, UniProt Q06710); assay: inhibitors of PAX8-driven TPO luciferase reporter, dose response, RMG-I cells, cherry-pick (AID 687027); format: functional, cell-based;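 also: luciferase reporter driven by Pax8 target thyroperoxidase promoter measured by SteadyGlo luminescence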
Sequence of Paired box protein Pax-8 (Q06710 whole entry): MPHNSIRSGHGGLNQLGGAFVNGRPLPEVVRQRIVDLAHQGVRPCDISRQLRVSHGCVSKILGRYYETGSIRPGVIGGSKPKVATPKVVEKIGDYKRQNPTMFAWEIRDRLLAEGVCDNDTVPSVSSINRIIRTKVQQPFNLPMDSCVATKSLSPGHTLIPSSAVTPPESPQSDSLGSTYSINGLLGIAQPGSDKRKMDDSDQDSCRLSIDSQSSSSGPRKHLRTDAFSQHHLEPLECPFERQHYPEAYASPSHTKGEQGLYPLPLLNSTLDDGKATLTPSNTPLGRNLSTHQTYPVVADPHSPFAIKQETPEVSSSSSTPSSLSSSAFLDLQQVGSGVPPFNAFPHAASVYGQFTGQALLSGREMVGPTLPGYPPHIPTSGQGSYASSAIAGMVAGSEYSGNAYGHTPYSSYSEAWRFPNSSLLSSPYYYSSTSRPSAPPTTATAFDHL

[5] = NIH:OVCAR-3 ovarian cancer cell cytotoxicity, dose response, PAX8 inhibitor project, plate reader, dry powder samples (AID 743044); format: functional, cell-based
[6] = IGROV1 ovarian cancer cell cytotoxicity, dose response, PAX8 inhibitor project, plate reader, dry powder samples (AID 743043); format: functional, cell-based; conditions: IGROV-1
[7] = Counterscreen for inhibitors of Trypanosoma brucei methionyl tRNA synthetase (MetRS): Luminescence-based cell-based high throughput dose response assay to identify compounds that are cytotoxic to Jurkat human T lymphocyte cells.; format: functional
[8] = target: T3, Methionyl-tRNA synthetase, putative (Trypanosoma brucei brucei, UniProt Q38C91); format: functional, Trypanosoma brucei brucei strain 927/4 GUTat10.1
T3 sequence (Q38C91 whole entry): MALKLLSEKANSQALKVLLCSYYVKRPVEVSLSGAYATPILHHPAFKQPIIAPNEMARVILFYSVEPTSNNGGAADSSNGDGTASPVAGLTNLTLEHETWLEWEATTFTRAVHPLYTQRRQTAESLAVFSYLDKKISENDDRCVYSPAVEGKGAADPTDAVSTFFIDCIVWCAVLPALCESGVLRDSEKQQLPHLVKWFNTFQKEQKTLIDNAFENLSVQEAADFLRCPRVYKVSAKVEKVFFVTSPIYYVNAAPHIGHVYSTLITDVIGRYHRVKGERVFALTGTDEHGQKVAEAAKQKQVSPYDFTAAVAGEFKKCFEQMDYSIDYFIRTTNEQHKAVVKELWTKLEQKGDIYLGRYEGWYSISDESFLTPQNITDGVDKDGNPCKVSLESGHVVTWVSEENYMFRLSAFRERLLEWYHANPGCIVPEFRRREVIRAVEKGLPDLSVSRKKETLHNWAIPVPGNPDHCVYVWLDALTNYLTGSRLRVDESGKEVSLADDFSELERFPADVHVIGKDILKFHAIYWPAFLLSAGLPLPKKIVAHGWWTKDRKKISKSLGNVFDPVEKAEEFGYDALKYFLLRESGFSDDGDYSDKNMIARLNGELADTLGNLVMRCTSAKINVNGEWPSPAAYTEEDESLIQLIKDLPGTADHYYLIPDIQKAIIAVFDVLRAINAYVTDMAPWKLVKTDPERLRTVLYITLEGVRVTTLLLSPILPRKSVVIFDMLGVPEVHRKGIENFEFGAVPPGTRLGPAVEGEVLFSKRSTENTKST

[9] = target: T4, Long-chain-fatty-acid--AMP ligase FadD28 (Mycobacterium tuberculosis, UniProt P9WQ59); assay: Fluorescence polarization aasay to screen for inhibitors that compete for the binding of FadD28 to a bisubstrate Measured in Biochemical System Using Plate Reader - 2147-01_Inhibitor_Dose_CherryPick_Activity.; format: functional, Mycobacterium tuberculosis H37Rv
T4 sequence (P9WQ59 whole entry): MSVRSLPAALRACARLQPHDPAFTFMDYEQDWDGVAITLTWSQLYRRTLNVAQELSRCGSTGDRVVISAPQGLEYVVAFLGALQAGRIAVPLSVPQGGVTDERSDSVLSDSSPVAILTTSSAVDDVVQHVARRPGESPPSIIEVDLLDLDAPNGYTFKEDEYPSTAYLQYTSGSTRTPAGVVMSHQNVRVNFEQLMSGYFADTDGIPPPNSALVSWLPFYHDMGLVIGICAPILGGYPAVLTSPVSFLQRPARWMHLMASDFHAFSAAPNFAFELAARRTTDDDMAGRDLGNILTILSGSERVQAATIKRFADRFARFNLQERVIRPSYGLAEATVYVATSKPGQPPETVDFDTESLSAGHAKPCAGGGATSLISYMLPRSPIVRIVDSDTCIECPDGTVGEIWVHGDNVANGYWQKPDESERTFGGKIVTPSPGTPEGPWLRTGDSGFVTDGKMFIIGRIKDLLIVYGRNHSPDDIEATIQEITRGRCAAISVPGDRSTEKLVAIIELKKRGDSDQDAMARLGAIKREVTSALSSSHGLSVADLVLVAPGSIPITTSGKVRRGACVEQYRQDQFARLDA

[10] = target: T3, Methionyl-tRNA synthetase, putative; format: functional, Trypanosoma brucei brucei strain 927/4 GUTat10.1; remark: listed apart in the source
[11] = ADAM10 inhibitors, peptide cleavage, dose response, biochemical, QFRET (AID 743254);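 also: ADAM10 enzyme with the DM2 quenched FRET peptide as substrate; EDANS fluorescence gain as the protease cuts the substrate; inhibitor potency against ADAM10 proteolytic activity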
[12] = target: T5, Replicative DNA helicase DnaB (Mycobacterium tuberculosis, UniProt P9WMR3); assay: DnaB intein splicing inhibitors, dose response, biochemical, cell-free fluorescence (AID 449749); format: functional
T5 sequence (P9WMR3 whole entry): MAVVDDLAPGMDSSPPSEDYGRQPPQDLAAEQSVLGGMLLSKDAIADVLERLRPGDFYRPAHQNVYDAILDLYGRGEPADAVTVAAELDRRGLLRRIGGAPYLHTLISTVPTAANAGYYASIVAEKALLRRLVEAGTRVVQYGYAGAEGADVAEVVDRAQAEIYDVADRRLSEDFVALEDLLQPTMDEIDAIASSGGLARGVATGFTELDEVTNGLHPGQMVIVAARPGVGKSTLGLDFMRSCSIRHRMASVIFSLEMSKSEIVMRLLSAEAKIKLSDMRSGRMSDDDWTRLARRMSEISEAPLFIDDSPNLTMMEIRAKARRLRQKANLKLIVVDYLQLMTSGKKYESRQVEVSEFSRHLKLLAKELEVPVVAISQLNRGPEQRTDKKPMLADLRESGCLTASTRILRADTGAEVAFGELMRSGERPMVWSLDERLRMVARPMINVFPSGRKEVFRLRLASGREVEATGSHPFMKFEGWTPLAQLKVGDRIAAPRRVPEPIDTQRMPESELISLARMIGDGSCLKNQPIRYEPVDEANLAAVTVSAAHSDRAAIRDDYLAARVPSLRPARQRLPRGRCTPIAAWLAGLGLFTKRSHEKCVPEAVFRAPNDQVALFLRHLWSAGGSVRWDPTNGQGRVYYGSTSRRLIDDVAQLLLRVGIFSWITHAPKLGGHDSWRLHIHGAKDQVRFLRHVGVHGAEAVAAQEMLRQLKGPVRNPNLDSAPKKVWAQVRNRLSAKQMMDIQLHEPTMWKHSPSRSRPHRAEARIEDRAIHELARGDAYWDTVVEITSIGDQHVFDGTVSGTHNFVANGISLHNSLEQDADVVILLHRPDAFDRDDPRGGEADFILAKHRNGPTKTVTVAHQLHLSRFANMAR

[13] = Luminescence Cell-Based Dose Response HTS to Identify Activators of Luciferase Translation or Activity in H4 […] Cells. [Related pubchem assays: 1829 (Project Summary), 1814 (Primary HTS)]; format: functional
H4 = assay: Luminescence Cell-Based Dose Response HTS to Identify Activators of 5'UTR Stem-Loop Driven Prion Protein mRNA Translation in H4 Neuroglioblastoma Cells. [Related pubchem assays: 1829 (Project Summary), 1814 (Primary HTS)]; format: functional; conditions: Homo sapiens
Protein RecA = target: T6, Protein RecA (Mycobacterium tuberculosis, UniProt P9WHJ3); assay: Fluorescence Cell-Free Homogeneous Dose Retest to Identify Inhibitors of RecA-Intein Splicing Activity. [Related pubchem assays (depositor defined):AID2097, AID2223, AID489010, AID492950]; format: functional
T6 sequence (P9WHJ3 whole entry): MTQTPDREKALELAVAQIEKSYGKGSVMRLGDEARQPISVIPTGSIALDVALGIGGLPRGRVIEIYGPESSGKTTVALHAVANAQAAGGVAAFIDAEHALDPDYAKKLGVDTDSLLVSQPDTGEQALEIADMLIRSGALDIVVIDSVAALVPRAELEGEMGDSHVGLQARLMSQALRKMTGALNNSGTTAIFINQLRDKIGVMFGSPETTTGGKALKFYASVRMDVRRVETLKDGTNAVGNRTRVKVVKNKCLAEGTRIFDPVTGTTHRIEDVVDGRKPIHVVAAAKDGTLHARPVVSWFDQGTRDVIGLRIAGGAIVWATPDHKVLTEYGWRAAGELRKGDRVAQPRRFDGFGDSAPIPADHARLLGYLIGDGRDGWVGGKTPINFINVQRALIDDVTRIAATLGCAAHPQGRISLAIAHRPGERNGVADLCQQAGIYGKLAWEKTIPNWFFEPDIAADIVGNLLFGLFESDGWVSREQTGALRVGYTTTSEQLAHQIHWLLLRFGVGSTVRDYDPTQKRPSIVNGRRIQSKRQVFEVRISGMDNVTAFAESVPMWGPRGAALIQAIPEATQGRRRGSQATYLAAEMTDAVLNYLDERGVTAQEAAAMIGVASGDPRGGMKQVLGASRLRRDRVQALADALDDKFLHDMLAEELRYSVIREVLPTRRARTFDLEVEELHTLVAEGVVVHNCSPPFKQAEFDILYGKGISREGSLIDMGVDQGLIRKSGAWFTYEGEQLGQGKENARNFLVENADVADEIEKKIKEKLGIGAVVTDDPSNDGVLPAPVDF

[14] = HEK293T cytotoxicity, dose response, cytotoxicity control for miR-122 modulator project, cell-based, inhibitor set, cherry-pick, set 2 (AID 720697); format: functional
[15] = target: T1, Disintegrin and metalloproteinase domain-containing protein 17; assay: exosite inhibitors of ADAM17, dose response, biochemical (AID 743260)
[16] = ADAM10 protease inhibitors, dose response, selectivity assay for ADAM17 exosite inhibitor project, biochemical, FRET peptide substrate, recombinant human ADAM10 (AID 743259);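 also: ADAM10 enzyme cleaving a FRET peptide substrate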

T1 sequence (P78536 whole entry, the tested form may be a part): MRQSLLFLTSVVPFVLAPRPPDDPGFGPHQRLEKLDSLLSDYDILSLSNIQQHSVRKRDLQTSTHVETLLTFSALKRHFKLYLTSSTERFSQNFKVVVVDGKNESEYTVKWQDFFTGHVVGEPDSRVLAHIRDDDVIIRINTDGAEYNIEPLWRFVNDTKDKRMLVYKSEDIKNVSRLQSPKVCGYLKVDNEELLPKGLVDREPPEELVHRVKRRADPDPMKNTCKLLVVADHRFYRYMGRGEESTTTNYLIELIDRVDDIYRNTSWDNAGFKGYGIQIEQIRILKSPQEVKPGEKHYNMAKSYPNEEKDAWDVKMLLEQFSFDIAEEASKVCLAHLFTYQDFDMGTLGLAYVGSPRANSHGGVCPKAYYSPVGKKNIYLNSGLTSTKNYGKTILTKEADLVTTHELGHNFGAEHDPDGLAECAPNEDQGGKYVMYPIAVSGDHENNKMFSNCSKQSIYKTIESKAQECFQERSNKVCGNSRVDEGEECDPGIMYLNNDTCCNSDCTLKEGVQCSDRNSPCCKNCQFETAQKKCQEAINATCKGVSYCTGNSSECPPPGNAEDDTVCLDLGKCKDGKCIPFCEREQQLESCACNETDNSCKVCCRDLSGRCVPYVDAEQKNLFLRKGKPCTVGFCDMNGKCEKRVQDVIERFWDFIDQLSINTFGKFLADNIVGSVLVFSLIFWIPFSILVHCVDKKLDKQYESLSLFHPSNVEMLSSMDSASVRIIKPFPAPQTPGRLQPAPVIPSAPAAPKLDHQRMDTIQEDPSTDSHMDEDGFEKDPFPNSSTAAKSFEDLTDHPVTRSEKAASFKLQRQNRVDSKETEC

## FC(F)(F)c1cc(CCN2C(=S)NC[C@@H]2Cc2ccccc2)cc(C(F)(F)F)c1
[1]
  IC50: > 69.5 µM (inactive)

## Clc1ccc(OCc2cc(-c3ccccc3)no2)c(Cl)c1
cells
  IC50: > 67.5 µM (inactive)
[2]
  IC50: > 67.5 µM (inactive)

## O=C(Nc1ccc(F)cc1)N1C[C@@H]2N[C@H](C1)[C@@H]2c1ccc(-c2ccccc2F)cc1
[3]
  AC50: 55.6 µM (active)
[4]
  AC50: > 70 µM (inactive)
Paired box protein Pax-8
  AC50: 13.8 µM (active)
[5]
  AC50: 32 µM (active)
[6]
  AC50: 42.5 µM (active)

## O=C(NN1C(=O)/C(=C/c2ccc(O)cc2)SC1=S)c1cccc(O)c1
[7]
  IC50: 83.3 µM (inactive)
[8]
  IC50: 44.6 µM (inactive)
[9]
  AC50: 62 µM (active)
[10]
  IC50: 30.9 µM (inactive)

## COC(=O)C1=C(c2ccccc2OCc2ccccc2)C[C@@H]2CC[C@H]1N2C(=O)NCc1ccc(C(C)(C)C)cc1
[11]
  IC50: > 69.5 µM (inactive)
[1]
  IC50: > 69.5 µM (inactive)

## Cc1ccc(-n2nc(C)c(NC(=O)CCl)c2C)cc1C
[12]
  AC50: > 380 µM (inactive)
[13]
  EC50: 115 µM (active)
[3]
  AC50: 39.5 µM (active)
Paired box protein Pax-8
  AC50: 6.77 µM (active)
H4
  EC50: > 120 µM (not active)
Protein RecA
  EC50: 16 µM (active)

## FC(F)(F)c1cc(CCN2C(S)=NC[C@@H]2Cc2ccccc2)cc(C(F)(F)F)c1
[11]
  IC50: 11.8 µM (inactive)

## Cc1ccc(-n2c(S)nnc2Cc2ccccc2)cc1
[14]
  AC50: 3.74 µM (active)

## Cc1ccc(OCc2nnc(SC/C=C/c3ccccc3)n2Cc2ccco2)cc1
[15]
  IC50: > 69.6 µM (inactive)
[16]
  IC50: 16 µM (inactive)

## COC(=O)c1sccc1NC(=O)Nc1ccc(C)cc1
cells
  IC50: > 67.6 µM (inactive)
[2]
  IC50: > 67.6 µM (inactive)

## COCC(=O)NC[C@@H]1[C@H](c2ccc(C3=CCCC3)cc2)[C@H](CO)N1C(=O)C1CC1
[14]
  AC50: 0.499 µM (active)

## Cc1cc(Cl)c2oc(C(=O)N(C)C3CCOC3)c(C)c2c1 (stereo not drawn)
cells
  IC50: > 67.5 µM (inactive)
[2]
  IC50: > 67.5 µM (inactive)

## COc1ccccc1/C=C/C1C(C(=O)OCC(C)C)=C(C)N=C2SCCC(=O)N21 (stereo not drawn)
[15]
  IC50: > 69.5 µM (inactive)
[16]
  IC50: > 69.5 µM (inactive)

## O=C1NC(=O)C(Cc2ccc(Cl)cc2)(c2ccccc2)N1 (stereo not drawn)
[15]
  IC50: 3.67 µM (active)
[16]
  IC50: 29.4 µM (inactive)
